Patent US8293772B2, “Triazole substituted aminobenzophenone compounds” (Leo Pharma A/S, priority 2004, dated 2012)

Key:
[1] = test system: TNF-α; assay: In vivo screening model of LPS induced TNF-α response in mice; conditions: Mus musculus, po, 1 mg/kg p.o., 1 hour prior to LPS, plasma TNF-α 80-90 minutes after LPS, read-out: In vivo inhibition of LPS induced TNF-α production (in %)
Description: In Vivo Screening Model of LPS Induced TNF-α Response in Mice
To study the effect of compounds of the present invention in vivo, an in vivo screening model of LPS induced TNF-α response in mice was set up as follows: Groups of 6 mice (C3H/HeN, female, about 8 weeks (20 g), Bomholtgaard) were dosed with test compounds in suspension vehicle 1 hour prior to LPS administration (LPS from E. coli 055:B5, L-4005, Sigma). At time 0, the mice were dosed ip with 1.0 mg LPS/kg. After anesthetization with Hypnorm/Dormicum, the mice were bled from the periorbital venous plexus 80-90 minutes after LPS administration. The blood samples were sampled in EDTA stabilised tubes and centrifuged at 4000 rpm for 10 minutes at 4° C. The plasma level of TNF-α was analysed by ELISA. Compound 156 of WO 98/32730 was used as reference compound. The plasma level of TNF-α was determined using a sandwich ELISA. Microtiter plates were coated with a monoclonal antibody against mouse TNF-α, washed and blocked with a casein buffer. Samples of mouse TNF-α recombinant standards were added to the wells of the microtiter plates and incubated. All standards were tested in triplicate, all plasma samples in single. After sample and standard incubation, the plates were washed and incubated with biotinylated polyclonal secondary antibody against mouse TNF-α and washed. Enzyme conjugate was added to all wells and incubated. Substrate was added and the enzyme/substrate reaction stopped after 15 minutes at room temperature with 1M H2SO4. The colour development (OD) was measured at 450 nm on an ELISA reader and the background OD at 620 nm was subtracted. […] The results of the tested compounds are indicated as a percentage inhibition compared to an LPS treated control group. Compounds were tested at 1 mg/kg (p.o.). The Mann-Whitney test was used to compare drug treated groups to the LPS treated control group (p<0.05).

[2] = test system: IL-1β; assay: Inhibition of IL-1β secretion in LPS stimulated peripheral blood mononuclear cells; type: cell-based; conditions: LPS stimulated human PBMC, 18 hours, ELISA; read-out: The median inhibition concentration (IC50, nM) of IL-1β
Description: (§1) To study the effect of compounds of the present invention in vitro, the inhibition of IL-1β and TNF-α secretion was determined using the following procedure:
(§2) Cytokine production was measured in the media from lipopolysaccharide (LPS) stimulated peripheral blood mononuclear cells. The mononuclear cells were isolated from human peripheral blood by Lymphoprep® (Nycomed, Norway) fractionation and suspended in RPMI 1640 (growth medium) with foetal calf serum (FCS, 2%), at a concentration of 5×10^5 cells/ml. The cells were incubated in 24-well tissue culture plates in 1 ml aliquots. Test compounds were dissolved in dimethylsulfoxide (DMSO, 10 mM) and were diluted with the medium. Compounds were added to the cells for 30 minutes, then LPS ([…] final concentration) was added. The plates were incubated for 18 hours, and the concentration of IL-1β and TNF-α in the medium was determined by enzyme-linked immunosorbent assays. The median inhibitory concentrations (IC50) of the compounds were calculated.

[3] = test system: TNF-α; assay: Inhibition of TNF-α secretion in LPS stimulated peripheral blood mononuclear cells; type: cell-based; conditions: LPS stimulated human PBMC, 18 hours, ELISA; read-out: The median inhibition concentration (IC50, nM) of TNF-α
Description: as §1, §2

Row | Compound | inhibition in vivo at 1 mg/kg [1] | IC50 [2] | IC50 [3]
1 | Cc1ccc(-c2cn(CCCO)nn2)cc1C(=O)c1ccc(Nc2ccc(F)cc2F)cc1Cl [Compound 104, [2-Chloro-4-(2,4-difluoro-phenylamino)-phenyl]-{5-[1-(3-hydroxy-propyl)-1H-[1,2,3]triazol-4-yl]-2-methyl-phenyl}-methanone] | 90% | 0.6 nM | 0.5 nM
2 | Cc1ccc(-n2cc(C(C)(C)N)nn2)cc1C(=O)c1ccc(Nc2ccc(F)cc2F)cc1Cl [Compound 131, {5-[4-(1-Amino-1-methyl-ethyl)-[1,2,3]triazol-1-yl]-2-methyl-phenyl}-[2-chloro-4-(2,4-difluoro-phenylamino)-phenyl]-methanone] | 80% | 2.5 nM | 1.8 nM
3 | Cc1ccc(-n2cc(CCN)nn2)cc1C(=O)c1ccc(Nc2ccc(F)cc2F)cc1Cl [Compound 136, {5-[4-(2-Amino-ethyl)-[1,2,3]triazol-1-yl]-2-methyl-phenyl}-[2-chloro-4-(2,4-difluoro-phenylamino)-phenyl]-methanone] | – | 1.6 nM | 1.3 nM
4 | CCCNCCc1cn(-c2ccc(C)c(C(=O)c3ccc(Nc4ccc(F)cc4F)cc3Cl)c2)nn1 [Compound 142, [2-Chloro-4-(2,4-difluoro-phenylamino)-phenyl]-{2-methyl-5-[4-(2-propylamino-ethyl)-[1,2,3]triazol-1-yl]-phenyl}-methanone] | – | 1 nM | 0.8 nM
5 | Cc1ccc(-c2cn(CC(N)=O)nn2)cc1C(=O)c1ccc(Nc2ccc(F)cc2F)cc1Cl [Compound 107, 2-(4-{3-[2-Chloro-4-(2,4-difluoro-phenylamino)-benzoyl]-4-methyl-phenyl}-[1,2,3]triazol-1-yl)-acetamide] | 91% | 0.8 nM | 0.5 nM
6 | Cc1ccc(-n2cc(CCN3CCN(C)CC3)nn2)cc1C(=O)c1ccc(Nc2ccc(F)cc2F)cc1Cl [Compound 139, [2-Chloro-4-(2,4-difluoro-phenylamino)-phenyl]-(2-methyl-5-{4-[2-(4-methyl-piperazin-1-yl)-ethyl]-[1,2,3]triazol-1-yl}-phenyl)-methanone] | – | 1.6 nM | 0.5 nM
7 | CCN(CC)CCc1cn(-c2ccc(C)c(C(=O)c3ccc(Nc4ccc(F)cc4F)cc3Cl)c2)nn1 [Compound 140, [2-Chloro-4-(2,4-difluoro-phenylamino)-phenyl]-{5-[4-(2-diethylamino-ethyl)-[1,2,3]triazol-1-yl]-2-methyl-phenyl}-methanone] | – | 2 nM | 0.8 nM
8 | Cc1ccc(-n2cc(CCN3CCOCC3)nn2)cc1C(=O)c1ccc(Nc2ccc(F)cc2F)cc1Cl [Compound 138, [2-Chloro-4-(2,4-difluoro-phenylamino)-phenyl]-{2-methyl-5-[4-(2-morpholin-4-yl-ethyl)-[1,2,3]triazol-1-yl]-phenyl}-methanone] | – | 3.2 nM | 2 nM
9 | Cc1ccc(-n2cc(C(C)(C)O)nn2)cc1C(=O)c1ccc(Nc2ccc(F)cc2F)cc1Cl [Compound 129, [2-Chloro-4-(2,4-difluoro-phenylamino)-phenyl]-{5-[4-(1-hydroxy-1-methyl-ethyl)-[1,2,3]triazol-1-yl]-2-methyl-phenyl}-methanone] | 83% | – | 1.4 nM
10 | Cc1ccc(-c2cn(CCO)nn2)cc1C(=O)c1ccc(Nc2ccc(F)cc2)cc1Cl [Compound 122, [2-Chloro-4-(4-fluoro-phenylamino)-phenyl]-{5-[1-(2-hydroxy-ethyl)-1H-[1,2,3]triazol-4-yl]-2-methyl-phenyl}-methanone] | 96% | 1.4 nM | 0.9 nM
11 | Cc1ccc(-n2cc(CNC(N)=O)nn2)cc1C(=O)c1ccc(Nc2ccc(F)cc2F)cc1Cl [Compound 137, (1-{3-[2-Chloro-4-(2,4-difluoro-phenylamino)-benzoyl]-4-methyl-phenyl}-1H-[1,2,3]triazol-4-ylmethyl)-urea] | – | 1 nM | 0.3 nM
12 | Cc1cc(Cl)ccc1Nc1ccc(C(=O)c2cc(-n3cc(CCO)nn3)ccc2C)c(Cl)c1 [Compound 145, [2-Chloro-4-(4-chloro-2-methyl-phenylamino)-phenyl]-{5-[4-(2-hydroxy-ethyl)-[1,2,3]triazol-1-yl]-2-methyl-phenyl}-methanone] | – | 5 nM | 2 nM
13 | Cc1ccc(-n2cc(CCO)nn2)cc1C(=O)c1ccc(Nc2ccc(F)cc2Cl)cc1Cl [Compound 118, [2-Chloro-4-(2-chloro-4-fluoro-phenylamino)-phenyl]-{5-[4-(2-hydroxy-ethyl)-[1,2,3]triazol-1-yl]-2-methyl-phenyl}-methanone] | – | 1.3 nM | 0.9 nM
14 | Cc1ccc(-c2cn(CC3COC(C)(C)O3)nn2)cc1C(=O)c1ccc(Nc2ccc(F)cc2F)cc1Cl (centres unmarked) [Compound 105, [2-Chloro-4-(2,4-difluoro-phenylamino)-phenyl]-{5-[1-(2,2-dimethyl-[1,3]dioxolan-4-ylmethyl)-1H-[1,2,3]triazol-4-yl]-2-methyl-phenyl}-methanone] | – | – | 1.4 nM
15 | Cc1ccccc1Nc1ccc(C(=O)c2cc(-n3cc(CCO)nn3)ccc2C)c(Cl)c1 [Compound 117, (2-Chloro-4-o-tolylamino-phenyl)-{5-[4-(2-hydroxy-ethyl)-[1,2,3]triazol-1-yl]-2-methyl-phenyl}-methanone] | – | 1.6 nM | 1.1 nM
16 | Cc1ccc(-c2cn(CC(=O)NC(C)(C)CO)nn2)cc1C(=O)c1ccc(Nc2ccc(F)cc2F)cc1Cl [Compound 113, 2-(4-{3-[2-Chloro-4-(2,4-difluoro-phenylamino)-benzoyl]-4-methyl-phenyl}-[1,2,3]triazol-1-yl)-N-(2-hydroxy-1,1-dimethyl-ethyl)-acetamide] | – | 6.3 nM | 0.6 nM
17 | Cc1ccc(-n2cc(CCNCCO)nn2)cc1C(=O)c1ccc(Nc2ccc(F)cc2F)cc1Cl [Compound 141, [2-Chloro-4-(2,4-difluoro-phenylamino)-phenyl]-(5-{4-[2-(2-hydroxy-ethylamino)-ethyl]-[1,2,3]triazol-1-yl}-2-methyl-phenyl)-methanone] | – | 0.6 nM | 0.6 nM
18 | CC(=O)c1cn(-c2ccc(C)c(C(=O)c3ccc(Nc4ccc(F)cc4F)cc3Cl)c2)nn1 [Compound 130, 1-(1-{3-[2-Chloro-4-(2,4-difluoro-phenylamino)-benzoyl]-4-methyl-phenyl}-1H-[1,2,3]triazol-4-yl)-ethanone] | – | 1.3 nM | 0.6 nM
19 | COc1ccc(-c2cn(CCO)nn2)cc1C(=O)c1ccc(Nc2ccc(F)cc2F)cc1Cl [Compound 120, [2-Chloro-4-(2,4-difluoro-phenylamino)-phenyl]-{5-[1-(2-hydroxy-ethyl)-1H-[1,2,3]triazol-4-yl]-2-methoxy-phenyl}-methanone] | – | 5 nM | 0.8 nM
20 | Cc1ccc(-n2cc(CCO)nn2)cc1C(=O)c1ccc(Nc2ccc(F)cc2F)cc1Cl [Compound 128, [2-Chloro-4-(2,4-difluoro-phenylamino)-phenyl]-{5-[4-(2-hydroxy-ethyl)-[1,2,3]triazol-1-yl]-2-methyl-phenyl}-methanone] | 95% | – | 1 nM
21 | Cc1cc(F)ccc1Nc1ccc(C(=O)c2cc(-n3cc(CCO)nn3)ccc2C)c(Cl)c1 [Compound 143, [2-Chloro-4-(4-fluoro-2-methyl-phenylamino)-phenyl]-{5-[4-(2-hydroxy-ethyl)-[1,2,3]triazol-1-yl]-2-methyl-phenyl}-methanone] | – | 4 nM | 1 nM
22 | CCOC(=O)Cn1cc(-c2ccc(C)c(C(=O)c3ccc(Nc4ccc(F)cc4F)cc3Cl)c2)nn1 [Compound 110, (4-{3-[2-Chloro-4-(2,4-difluoro-phenylamino)-benzoyl]-4-methyl-phenyl}-[1,2,3]triazol-1-yl)-acetic acid ethyl ester] | – | 6.3 nM | 3.6 nM
